Measured values from US20230085307A1, “PYRIDAZINONE COMPOUND AND HERBICIDE” (NISSAN CHEMICAL CORPORATION, priority 2019, published 2023).

Columns and labels:
[1] = system: late watergrass; test: Test Example 1: herbicidal activity, application before weed generation under submerged conditions (Table 16, symbol A); assay type: in vivo, late watergrass (Echinochloa oryzicola); conditions: amount of applied herbicide 320 g/ha
Summary of the method: (§1)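 Alluvial soil was flooded to 4 cm depth, weed seeds were sown mixed and 2.5-leaf rice seedlings were transplanted. On sowing day, the compound's emulsion, diluted in water to a set dose, was applied to the water surface. Plants grew at 25–30 °C and were scored 0–5 after three weeks.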

[2] = system: Japanese bulrush; test: Test Example 1: herbicidal activity, application before weed generation under submerged conditions (Table 16, symbol B); assay type: in vivo, Japanese bulrush (Schoenoplectus juncoides); conditions: amount of applied herbicide 320 g/ha
Summary of the method: as §1

[3] = system: oval-leafed pondweed; test: Test Example 1: herbicidal activity, application before weed generation under submerged conditions (Table 16, symbol C); assay type: in vivo, oval-leafed pondweed (Monochoria vaginalis); conditions: amount of applied herbicide 320 g/ha
Summary of the method: as §1

[4] = system: late watergrass; test: Test Example 2: herbicidal activity, application during weed generation under submerged conditions (Table 17, symbol A); assay type: in vivo, late watergrass (Echinochloa oryzicola); conditions: AAH 320 g/ha; application during weed generation, submerged conditions
Summary of the method: (§2)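 Alluvial soil in Wagner pots was flooded to 4 cm depth and sown with the three weeds together; pots were kept in a greenhouse at 25° C. to 30° C. At the one to two leaf stage, an emulsion formulation diluted in water to a set rate went onto the water surface; scored three weeks later.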

[5] = system: Japanese bulrush; test: Test Example 2: herbicidal activity, application during weed generation under submerged conditions (Table 17, symbol B); assay type: in vivo, Japanese bulrush (Schoenoplectus juncoides); conditions: AAH 320 g/ha; application during weed generation, submerged conditions
Summary of the method: as §2

[6] = system: oval-leafed pondweed; test: Test Example 2: herbicidal activity, application during weed generation under submerged conditions (Table 17, symbol C); assay type: in vivo, oval-leafed pondweed (Monochoria vaginalis); conditions: AAH 320 g/ha; application during weed generation, submerged conditions
Summary of the method: as §2

[7] = system: southern crabgrass; test: Test Example 4: herbicidal effect by soil treatment (Table 19, symbol F); assay type: in vivo, southern crabgrass (Digitaria ciliaris); conditions: amount of applied herbicide 320 g/ha
Summary of the method: (§3)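 In this soil treatment, the formulated compound reached the seeds only through the soil: seeds were buried about 1.5 cm deep in sterilized diluvial soil, then the diluted emulsion was sprayed over the surface. After three weeks at 25° C. to 30° C. in a greenhouse, effects were graded on criteria from an earlier test.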

[8] = system: green foxtail; test: Test Example 4: herbicidal effect by soil treatment (Table 19, symbol G); assay type: in vivo, green foxtail (Setaria viridis); conditions: amount of applied herbicide 320 g/ha
Summary of the method: as §3

[9] = system: barnyard grass; test: Test Example 4: herbicidal effect by soil treatment (Table 19, symbol H); assay type: in vivo, barnyard grass (Echinochloa crus-galli); conditions: amount of applied herbicide 320 g/ha
Summary of the method: as §3

[10] = system: wild oat; test: Test Example 4: herbicidal effect by soil treatment (Table 19, symbol I); assay type: in vivo, wild oat (Avena fatua); conditions: amount of applied herbicide 320 g/ha
Summary of the method: as §3

[11] = system: blackgrass; test: Test Example 4: herbicidal effect by soil treatment (Table 19, symbol J); assay type: in vivo, blackgrass (Alopecurus myosuroides); conditions: amount of applied herbicide 320 g/ha
Summary of the method: as §3

[12] = system: Italian ryegrass; test: Test Example 4: herbicidal effect by soil treatment (Table 19, symbol K); assay type: in vivo, Italian ryegrass (Lolium multiflorum); conditions: amount of applied herbicide 320 g/ha
Summary of the method: as §3

[13] = system: windgrass; test: Test Example 4: herbicidal effect by soil treatment (Table 19, symbol L); assay type: in vivo, windgrass (Apera spica-venti); conditions: amount of applied herbicide 320 g/ha
Summary of the method: as §3

[14] = system: velvetleaf; test: Test Example 4: herbicidal effect by soil treatment (Table 19, symbol M); assay type: in vivo, velvetleaf (Abutilon theophrasti); conditions: amount of applied herbicide 320 g/ha
Summary of the method: as §3

[15] = system: redroot pigweed; test: Test Example 4: herbicidal effect by soil treatment (Table 19, symbol N); assay type: in vivo, redroot pigweed (Amaranthus retroflexus); conditions: amount of applied herbicide 320 g/ha
Summary of the method: as §3

[16] = system: lambsquarters; test: Test Example 4: herbicidal effect by soil treatment (Table 19, symbol O); assay type: in vivo, lambsquarters (Chenopodium album); conditions: amount of applied herbicide 320 g/ha
Summary of the method: as §3

[17] = system: chickweed; test: Test Example 4: herbicidal effect by soil treatment (Table 19, symbol P); assay type: in vivo, common chickweed (Stellaria media); conditions: amount of applied herbicide 320 g/ha
Summary of the method: as §3

[18] = system: false cleavers; test: Test Example 4: herbicidal effect by soil treatment (Table 19, symbol Q); assay type: in vivo, false cleavers (Galium spurium); conditions: amount of applied herbicide 320 g/ha
Summary of the method: as §3

[19] = system: persian speedwell; test: Test Example 4: herbicidal effect by soil treatment (Table 19, symbol R); assay type: in vivo, Persian speedwell (Veronica persica); conditions: amount of applied herbicide 320 g/ha
Summary of the method: as §3

[20] = system: southern crabgrass; test: Test Example 5: herbicidal effect by foliage application, plastic box (Table 20, symbol F); assay type: in vivo, southern crabgrass (Digitaria ciliaris); conditions: foliage application, 320 g/ha, three weeks after application
Summary of the method: (§4)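 Plants were sown into sterilized diluvial soil under about 1.5 cm cover and kept in a greenhouse at 25° C. to 30° C. Fourteen days on, foliage received an even spray of the diluted emulsion. Herbicidal or crop effect was judged three weeks afterwards.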

[21] = system: green foxtail; test: Test Example 5: herbicidal effect by foliage application, plastic box (Table 20, symbol G); assay type: in vivo, green foxtail (Setaria viridis); conditions: foliage application, 320 g/ha, three weeks after application
Summary of the method: as §4

[22] = system: barnyard grass; test: Test Example 5: herbicidal effect by foliage application, plastic box (Table 20, symbol H); assay type: in vivo, barnyard grass (Echinochloa crus-galli); conditions: foliage application, 320 g/ha, three weeks after application
Summary of the method: as §4

[23] = system: wild oat; test: Test Example 5: herbicidal effect by foliage application, plastic box (Table 20, symbol I); assay type: in vivo, wild oat (Avena fatua); conditions: foliage application, 320 g/ha, three weeks after application
Summary of the method: as §4

[24] = system: blackgrass; test: Test Example 5: herbicidal effect by foliage application, plastic box (Table 20, symbol J); assay type: in vivo, blackgrass (Alopecurus myosuroides); conditions: foliage application, 320 g/ha, three weeks after application
Summary of the method: as §4

[25] = system: Italian ryegrass; test: Test Example 5: herbicidal effect by foliage application, plastic box (Table 20, symbol K); assay type: in vivo, Italian ryegrass (Lolium multiflorum); conditions: foliage application, 320 g/ha, three weeks after application
Summary of the method: as §4

[26] = system: windgrass; test: Test Example 5: herbicidal effect by foliage application, plastic box (Table 20, symbol L); assay type: in vivo, windgrass (Apera spica-venti); conditions: foliage application, 320 g/ha, three weeks after application
Summary of the method: as §4

[27] = system: velvetleaf; test: Test Example 5: herbicidal effect by foliage application, plastic box (Table 20, symbol M); assay type: in vivo, velvetleaf (Abutilon theophrasti); conditions: foliage application, 320 g/ha, three weeks after application
Summary of the method: as §4

[28] = system: redroot pigweed; test: Test Example 5: herbicidal effect by foliage application, plastic box (Table 20, symbol N); assay type: in vivo, redroot pigweed (Amaranthus retroflexus); conditions: foliage application, 320 g/ha, three weeks after application
Summary of the method: as §4

[29] = system: lambsquarters; test: Test Example 5: herbicidal effect by foliage application, plastic box (Table 20, symbol O); assay type: in vivo, lambsquarters (Chenopodium album); conditions: foliage application, 320 g/ha, three weeks after application
Summary of the method: as §4

[30] = system: chickweed; test: Test Example 5: herbicidal effect by foliage application, plastic box (Table 20, symbol P); assay type: in vivo, common chickweed (Stellaria media); conditions: foliage application, 320 g/ha, three weeks after application
Summary of the method: as §4

[31] = system: false cleavers; test: Test Example 5: herbicidal effect by foliage application, plastic box (Table 20, symbol Q); assay type: in vivo, false cleavers (Galium spurium); conditions: foliage application, 320 g/ha, three weeks after application
Summary of the method: as §4

[32] = system: persian speedwell; test: Test Example 5: herbicidal effect by foliage application, plastic box (Table 20, symbol R); assay type: in vivo, Persian speedwell (Veronica persica); conditions: foliage application, 320 g/ha, three weeks after application
Summary of the method: as §4

CCCC(=O)Oc1c(C)nn(C)c(=O)c1-c1c(-c2ccc(F)cc2)sc2cc(OC)ccc12 [3-064]
Herbicidal effect, A: late watergrass [1]: 0 (Herbicidal rate of 5% or less (almost no effect))
Herbicidal effect, B: Japanese bulrush [2]: 3 (Herbicidal rate of 40% or more and less than 70%)
Herbicidal effect, C: oval-leafed pondweed [3]: 4 (Herbicidal rate of 70% or more and less than 90%)
herbicidal effect rating, A: late watergrass [4]: 0 (Herbicidal rate of 5% or less (almost no effect))
herbicidal effect rating, B: Japanese bulrush [5]: 1 (Herbicidal rate of 5% or more and less than 20%)
herbicidal effect rating, C: oval-leafed pondweed [6]: 3 (Herbicidal rate of 40% or more and less than 70%)
F: southern crabgrass, herbicidal effect grade [7]: 0 (Herbicidal rate of 5% or less (almost no effect))
G: green foxtail, herbicidal effect grade [8]: 0 (Herbicidal rate of 5% or less (almost no effect))
H: barnyard grass, herbicidal effect grade [9]: 0 (Herbicidal rate of 5% or less (almost no effect))
I: wild oat, herbicidal effect grade [10]: 0 (Herbicidal rate of 5% or less (almost no effect))
J: blackgrass, herbicidal effect grade [11]: 0 (Herbicidal rate of 5% or less (almost no effect))
K: Italian ryegrass, herbicidal effect grade [12]: 0 (Herbicidal rate of 5% or less (almost no effect))
L: windgrass, herbicidal effect grade [13]: 0 (Herbicidal rate of 5% or less (almost no effect))
M: velvetleaf, herbicidal effect grade [14]: 0 (Herbicidal rate of 5% or less (almost no effect))
N: redroot pigweed, herbicidal effect grade [15]: 2 (Herbicidal rate of 20% or more and less than 40%)
O: lambsquarters, herbicidal effect grade [16]: 3 (Herbicidal rate of 40% or more and less than 70%)
P: chickweed, herbicidal effect grade [17]: 4 (Herbicidal rate of 70% or more and less than 90%)
Q: false cleavers, herbicidal effect grade [18]: 0 (Herbicidal rate of 5% or less (almost no effect))
R: persian speedwell, herbicidal effect grade [19]: 4 (Herbicidal rate of 70% or more and less than 90%)
F: southern crabgrass, herbicidal effect grade [20]: 0 (Herbicidal rate of 5% or less (almost no effect))
G: green foxtail, herbicidal effect grade [21]: 0 (Herbicidal rate of 5% or less (almost no effect))
H: barnyard grass, herbicidal effect grade [22]: 0 (Herbicidal rate of 5% or less (almost no effect))
I: wild oat, herbicidal effect grade [23]: 0 (Herbicidal rate of 5% or less (almost no effect))
J: blackgrass, herbicidal effect grade [24]: 0 (Herbicidal rate of 5% or less (almost no effect))
K: Italian ryegrass, herbicidal effect grade [25]: 0 (Herbicidal rate of 5% or less (almost no effect))
L: windgrass, herbicidal effect grade [26]: 0 (Herbicidal rate of 5% or less (almost no effect))
M: velvetleaf, herbicidal effect grade [27]: 1 (Herbicidal rate of 5% or more and less than 20%)
N: redroot pigweed, herbicidal effect grade [28]: 0 (Herbicidal rate of 5% or less (almost no effect))
O: lambsquarters, herbicidal effect grade [29]: 2 (Herbicidal rate of 20% or more and less than 40%)
P: chickweed, herbicidal effect grade [30]: 5 (Herbicidal rate of 90% or more (almost completely withered))
Q: false cleavers, herbicidal effect grade [31]: 0 (Herbicidal rate of 5% or less (almost no effect))
R: persian speedwell, herbicidal effect grade [32]: 4 (Herbicidal rate of 70% or more and less than 90%)
